Measured values published in US8604218B2, “Cytoskeletal active rho kinase inhibitor compounds, composition and use” (Inspire Pharmaceuticals, Inc., priority 2006, dated 2013).

target: ROCK2 (Homo sapiens (Human), UniProt O75116); experiment: Rho Kinase Inhibition Assay (IMAP fluorescence polarization); type: biochemical; conditions: isolated enzyme, 10 μM ATP, 60 minutes at room temperature
Sequence (O75116 11-552): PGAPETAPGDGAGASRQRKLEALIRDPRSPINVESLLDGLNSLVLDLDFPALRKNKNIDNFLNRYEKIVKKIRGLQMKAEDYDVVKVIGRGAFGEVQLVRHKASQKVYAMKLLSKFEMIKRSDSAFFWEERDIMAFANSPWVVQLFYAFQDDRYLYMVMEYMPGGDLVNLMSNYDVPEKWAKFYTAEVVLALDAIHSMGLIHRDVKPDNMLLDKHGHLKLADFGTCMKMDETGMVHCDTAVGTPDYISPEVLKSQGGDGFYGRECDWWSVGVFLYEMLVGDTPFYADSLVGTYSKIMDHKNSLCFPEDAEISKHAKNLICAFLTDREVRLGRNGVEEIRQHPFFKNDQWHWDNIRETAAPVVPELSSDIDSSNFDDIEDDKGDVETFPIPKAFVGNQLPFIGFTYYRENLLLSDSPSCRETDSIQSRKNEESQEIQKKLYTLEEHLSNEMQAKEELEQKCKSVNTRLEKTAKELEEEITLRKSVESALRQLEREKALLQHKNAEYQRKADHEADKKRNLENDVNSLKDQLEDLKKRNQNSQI

Row | IC50 | Structure (SMILES)
1 | 1780 nM | CS(=O)(=O)c1ccc(CN2CCC(Nc3cccc4cnccc34)C2)cc1 (stereo not shown) [Compound 2.005, N-(1-(4-(methylsulfonyl)benzyl)pyrrolidin-3-yl)isoquinolin-5-amine]
2 | 73.9 nM | c1ccc(CN2CCC(Nc3cccc4cnccc34)C2)cc1 (stereo not shown) [Compound 2.006, N-(1-benzylpyrrolidin-3-yl)isoquinolin-5-amine]
3 | 3620 nM | N#Cc1cccc(CN2CCC(Nc3cccc4cnccc34)C2)c1 (stereo not shown) [Compound 2.007, 3-((3-(isoquinolin-5-ylamino)pyrrolidin-1-yl)methyl)benzonitrile]
4 | 368 nM | CSc1ccc(CN2CCCC(Nc3cccc4cnccc34)C2)cc1 (stereo not shown) [Compound 2.009, N-(1-(4-(methylthio)benzyl)piperidin-3-yl)isoquinolin-5-amine]
5 | 1240 nM | c1cc(NC2CCCN(Cc3ccc(C4CC4)cc3)C2)c2ccncc2c1 (stereo not shown) [Compound 2.010, N-(1-(4-cyclopropylbenzyl)piperidin-3-yl)isoquinolin-5-amine]
6 | 4090 nM | c1cc(CN2CCCC(Nc3cccc4cnccc34)C2)cc(C2CC2)c1 (stereo not shown) [Compound 2.011, N-(1-(3-cyclopropylbenzyl)piperidin-3-yl)isoquinolin-5-amine]
7 | 14900 nM | c1cc(NC2CCCN(Cc3ccc(SC4CC4)cc3)C2)c2ccncc2c1 (stereo not shown) [Compound 2.012, N-(1-(4-(cyclopropylthio)benzyl)piperidin-3-yl)isoquinolin-5-amine]
8 | 1490 nM | c1ccc(CN2CCCC(Nc3cccc4cnccc34)CC2)cc1 (stereo not shown) [Compound 2.013, N-(1-benzylazepan-4-yl)isoquinolin-5-amine]
9 | 1670 nM | Clc1ccc(CN2CCCC(Nc3cccc4cnccc34)C2)cc1Cl (stereo not shown) [Compound 2.014, N-(1-(3,4-dichlorobenzyl)piperidin-3-yl)isoquinolin-5-amine]
10 | 4190 nM | FC(F)(F)c1cccc(CN2CCCC(Nc3cccc4cnccc34)C2)c1 (stereo not shown) [Compound 2.015, N-(1-(3-(trifluoromethyl)benzyl)piperidin-3-yl)isoquinolin-5-amine]
11 | 716 nM | Clc1ccc(CN2CCC(Nc3cccc4cnccc34)C2)cc1Cl (stereo not shown) [Compound 2.016, N-(1-(3,4-dichlorobenzyl)pyrrolidin-3-yl)isoquinolin-5-amine]
12 | 322 nM | COc1ccc(CN2CCC(Nc3cccc4cnccc34)C2)cc1 (stereo not shown) [Compound 2.017, N-(1-(4-methoxybenzyl)pyrrolidin-3-yl)isoquinolin-5-amine]
13 | 632 nM | FC(F)(F)c1cccc(CN2CCC(Nc3cccc4cnccc34)C2)c1 (stereo not shown) [Compound 2.018, N-(1-(3-(trifluoromethyl)benzyl)pyrrolidin-3-yl)isoquinolin-5-amine]
14 | 4080 nM | c1cc(N[C@H]2CCN(Cc3ccc(C4CC4)cc3)C2)c2ccncc2c1 [Compound 2.019, (S)-N-(1-(4-cyclopropylbenzyl)pyrrolidin-3-yl)isoquinolin-5-amine]
15 | 820 nM | c1cc(CN2CC[C@@H](Nc3cccc4cnccc34)C2)cc(C2CC2)c1 [Compound 2.020, (R)-N-(1-(3-cyclopropylbenzyl)pyrrolidin-3-yl)isoquinolin-5-amine]
16 | 1900 nM | c1cc(N[C@@H]2CCN(Cc3ccc(SC4CC4)cc3)C2)c2ccncc2c1 [Compound 2.021, (R)-N-(1-(4-(cyclopropylthio)benzyl)pyrrolidin-3-yl)isoquinolin-5-amine]
17 | 311 nM | c1cc(N[C@@H]2CCN(Cc3ccc(C4CC4)cc3)C2)c2ccncc2c1 [Compound 2.022, (R)-N-(1-(4-cyclopropylbenzyl)pyrrolidin-3-yl)isoquinolin-5-amine]
18 | 15700 nM | c1cc(CN2CC[C@H](Nc3cccc4cnccc34)C2)cc(C2CC2)c1 [Compound 2.023, (S)-N-(1-(3-cyclopropylbenzyl)pyrrolidin-3-yl)isoquinolin-5-amine]
19 | 8920 nM | c1cc(N[C@H]2CCN(Cc3ccc(SC4CC4)cc3)C2)c2ccncc2c1 [Compound 2.024, (S)-N-(1-(4-(cyclopropylthio)benzyl)pyrrolidin-3-yl)isoquinolin-5-amine]
